Measurements from ChEMBL document CHEMBL5034021, “Monomeric, Dimeric, and Trimeric Tropane Alkaloids from Pellacalyx saccardianus” (J Nat Prod, 2021).
Active and inactive are the calls of the source. No cut-off for these calls is given here.

Columns and labels:
[1] = system: BXPC-3; assay: Cytotoxicity against human BXPC-3 assessed as cell viability measured for 72 hrs by cell titer glo luminescent assay; type: functional, cell-based; conditions: for IC50: BXPC-3, 72 h
[2] = system: MRC5; assay: Cytotoxicity against human MRC5 assessed as cell viability measured for 72 hrs by cell titer glo luminescent assay; type: cell-based; conditions: for IC50: Homo sapiens, MRC5, 72 h
[3] = system: ASPC1; assay: Cytotoxicity against human ASPC1 assessed as cell viability measured for 72 hrs by cell titer glo luminescent assay; type: functional, cell-based; conditions: for IC50: ASPC1, 72 h
[4] = system: PANC-1; assay: Cytotoxicity against human PANC-1 assessed as cell viability measured for 72 hrs by cell titer glo luminescent assay; type: functional, cell-based; conditions: for IC50: PANC-1, 72 h
[5] = system: SW1990; assay: Cytotoxicity against human SW1990 assessed as cell viability measured for 72 hrs by cell titer glo luminescent assay; type: functional, cell-based; conditions: for IC50: SW1990, 72 h
[6] = system: Trachea; assay: Myorelaxant effect in Sprague-Dawley rat tracheal ring assessed as relaxation of carbachol-induced smooth muscle contraction by organ bath assay; type: functional
[7] = system: Trachea; assay: Myorelaxant effect in Sprague-Dawley rat tracheal ring assessed as […] relaxation of carbachol-induced smooth muscle contraction by organ bath assay; type: functional, tissue-based

| SMILES | IC50 [1] | IC50 [2] | IC50 [3] | IC50 [4] | IC50 [5] | Emax [6] | EC50 [7] | Activity [1] | Activity ([2]; human, mrc5, 72 h, time 72 hrs) | Activity [3] | Activity [4] | Activity [5] |
| --- | --- | --- | --- | --- | --- | --- | --- | --- | --- | --- | --- | --- |
| O=C(/C=C/c1ccccc1)OC1CC2CCC(C1)N2[C@H](CC(=O)OC1CC2CCC(C1)N2)c1ccccc1 (some centres not stated) | 6.6 µM | > 10 µM | 7.7 µM | 9.9 µM | > 10 µM |  |  |  |  |  |  |  |
| O=C(/C=C/c1ccccc1)OC1CC2CCC(C1)N2[C@@H](CC(=O)OC1CC2CCC(C1)N2)c1ccccc1 (some centres not stated) | 5.5 µM | 8.4 µM | 5.8 µM | 10.4 µM | > 10 µM |  |  |  |  |  |  |  |
| O=C(/C=C/c1ccccc1)OC1CC2CCC(C1)N2C(CC(=O)OC1CC2CCC(C1)N2C(CC(=O)OC1CC2CCC(C1)N2)c1ccccc1)c1ccccc1 (racemic) | 2.2 µM | 4.2 µM | 3.4 µM | 1.1 µM | 5.2 µM |  |  |  |  |  |  |  |
| CN1[C@@H]2CC[C@H]1C[C@@H](OC(=O)C(CO)c1ccccc1)C2 (mixture of isomers) [ATROPINE] |  |  |  |  |  | 112% | 0.00098 µM |  |  |  |  |  |
| Nc1ccn([C@@H]2O[C@H](CO)[C@@H](O)C2(F)F)c(=O)n1 [GEMCITABINE] | 25.9 µM | 35.1 µM | 29.1 µM | 30 µM | 25.4 µM |  |  |  |  |  |  |  |
| O=C(/C=C/c1ccccc1)OC1CC2CCC(C1)N2C(CC(=O)OC1CC2CCC(C1)N2)c1ccccc1 (racemic) | 4.6 µM | 9.8 µM | 6 µM | 10.6 µM | > 10 µM | 71.9% | 10.4 µM |  |  |  |  |  |
| O=C(/C=C/c1ccccc1)OC1CC2CCC(C1)N2C(=O)CCc1ccc(O)cc1 (configuration not stated) |  |  |  |  |  | 106% | 24.2 µM |  |  |  |  |  |
| O=CN1C2CCC1CC(OC(=O)c1ccccc1)C2 (configuration not stated) |  |  |  |  |  | 97% | 3.61 µM |  |  |  |  |  |
| O=C(OC1CC2CCC(C1)N2)c1ccccc1 (configuration not stated) |  |  |  |  |  | 101% | 7.83 µM |  |  |  |  |  |
| O=C(/C=C/c1ccccc1)OC1CC2CCC(C1)N2 (configuration not stated) |  |  |  |  |  | 82.5% | 0.44 µM | inactive | Non-Toxic | inactive | inactive | inactive |
